# Assay results as given in patent US10638757B2, “Formulation systems for antimicrobial glycolipids” (IMD Natural Solutions GmbH, priority 2016, dated 2020).
# “Also recorded” adds a separate entry of the source.
# Tests used:
# [1] = Screening of additives as formulation stabilizers in combination with a mixture of antimicrobial glycolipids in water based formulations (turbidity, qualitative overview)
# Experimental: As to identify formulation stabilizer a screening was conducted in which additives typically used in food, cosmetic or medical applications were combined with a mixture of antimicrobial glycolipids in a water based formulation. A rather high concentration of 1000 mg/l for the formulation enhancing agents was used as to not miss potential effects whereas the mixture of antimicrobial glycolipids was applied in typical use concentrations, i.e. 5, 10 and 25 μg/ml.
# Portions of about 50 mL each for two beverages. “Gerolsteiner Orangenlimonade” (turbid orange lemonade, de-gassed; cloudy beverage) and “REWE Apfelsaft” (clear apple juice, sterile filtered; clear beverage) as well as for 10 mM citrate buffer is water (pH 3.0), were mixed each with aliquots of a mixture of antimicrobial glycolipids and the respective additives as to establish for each individually screened additive three combinations of concentrations (1000 μg/ml (with few exceptions as listed below) additive with 5, 10 and 25 μg/ml mixture of antimicrobial glycolipids, respectively); three controls with neither adding a mixture of antimicrobial glycolipids nor additive were run in parallel.
# The necessary aliquots of a mixture of antimicrobial glycolipids were transferred from an aqueous stock solution containing 1 mg/ml mixture of antimicrobial glycolipids into the nine test solutions prepared for each additive.
# The necessary aliquots of additives were transferred directly into the 50 mL portions.
# For measurement of the turbidity the turbidity infrared device AL250T-IR from […]® was used. It was measured at three time points: day 0, 3, 7. All test samples were stored and handled at room temperature.
# [2] = Visual control of compatibility (turbidity, particles, precipitate) of beverages containing mixture of antimicrobial glycolipids with or without formulation stabilizer
# Experimental: All experiments done and reported in duplicate.
# Portions of about 50 mL each for the two beverages, “Gerolstetner Orangenlimonade” (turbid orange lemonade, de-gassed; cloudy beverage) and “REWE Apfelsaft” (clear apple juice, sterile filtered; clear beverage), were mixed with aliquots of a mixture of antimicrobial glycolipids and alpha-cyclodextrin as to establish the depicted nine combinations of concentrations (4-2 to 4-4 and 4-6 to 4-11, respectively); two control solutions with neither adding a mixture of antimicrobial glycolipids nor alpha-cyclodextrin were run in parallel (4-1 and 4-5, respectively).
# However, for the concentration of 10 μg/ml of mixture of antimicrobial glycolipids three combination with alpha-cyclodextrin, 25 (6-1, 6-2, 6-9, 6-10, 6-17, 6-18), 75 (6-3, 6-4, 6-11, 6-12, 6-19, 6-20) and 100 μg/ml (6-5, 6-6, 6-13, 6-14, 6-21, 6-22) and for the concentration of 25 μg/ml of mixture of antimicrobial glycolipids only 100 μg/ml alpha-cyclodextrin (6-7, 6-8, 6-15, 6-16, 6-23, 6-24) was used all with two test points, respectively.
# 2×50 mL portion of the four solutions in the Erlenmeyer flasks were poured into clear and sterile polystyrol conical tubes and sealed for investigation of stability and compatibility of such beverages at three different temperatures (6/20/40° C.) each, resulting in four tubes per temperature and beverage. Such 24 tubes were stored for seven days and observed at day 0, 3 and 7 by measurement of turbidity as well as by optical inspection. A control solution without adding any components was run in parallel.
# Portions of about 50 mL each for the three beverages, “Gerolsteiner Orangenlimonade” (orange lemonade, de-gassed, cloudy beverage), “Kastell Zitronensprudel” (citrus lemonade, sterile filtered, clear beverage), and “REWE Apfelsaft” (clear apple juice, sterile filtered, clear beverage), were mixed with aliquots of a mixture of antimicrobial glycolipids as to establish the nine test solutions; three control solutions without adding a mixture of antimicrobial glycolipids were ran in parallel: […]
# [3] = Comparison of alpha-cyclodextrin with Polysorbate 60: practicability in application in beverages and reliability in use; settings: compared with polysorbates
# Source text: The preferred formulation stabilizers polysorbates and cyclodextrins have been further investigated towards their practicability in application in beverages as well as their reliability in use.
# [4] = Influence of the additives on the MIC of a mixture of antimicrobial glycolipids (qualitative); assay type: cell-based; settings: additive 1 mg/ml
# Source text: In addition, the influence of the additives on the MIC of a mixture of antimicrobial glycolipids is described qualitatively.
# [5] = additive 1 mg/ml, independent of glycolipid mixture
molecule,measurement,setting,value
polyoxyethylene-(20)-sorbitane monooleate [Polysorbate 80],Effect of additive itself on water based product,[1]; [5],Increase of turbidity; also recorded: Not compatible with apple juice
OC[C@H]1O[C@@H]2O[C@H]3[C@H](O)[C@@H](O)[C@@H](O[C@H]4[C@H](O)[C@@H](O)[C@@H](O[C@H]5[C@H](O)[C@@H](O)[C@@H](O[C@H]6[C@H](O)[C@@H](O)[C@@H](O[C@H]7[C@H](O)[C@@H](O)[C@@H](O[C@H]1[C@H](O)[C@H]2O)O[C@@H]7CO)O[C@@H]6CO)O[C@@H]5CO)O[C@@H]4CO)O[C@@H]3CO [alpha-cyclodextrin],alpha-cyclodextrin concentration avoiding lack of compatibility,[2]; 10 μg/ml mixture of antimicrobial glycolipids in apple juice at 4° C.,75 µg/mL
same,alpha-cyclodextrin concentration needed to avoid lack of compatibility,[2]; 10 μg/ml mixture of antimicrobial glycolipids in apple juice at 40° C.,100 µg/mL
same,duration of improvement of compatibility,"[2]; alpha-cyclodextrin with 10 μg/ml mixture of antimicrobial glycolipids, apple juice",> 28 days
same,overall rating as broadly applicable and reliable formulation stabilizer,[3],superior
polyoxyethylene-(20)-sorbitane monolaurate [Polysorbate 20],Effect of additive itself on water based product,[1]; [5],Not compatible with apple juice.
O=C(O)CN(CCN(CC(=O)O)CC(=O)O)CC(=O)O [EDTA],Effect on MIC,[4],Impr.
Sorbitan monostearate,Effect of additive itself on water based product,[1]; additive 0.1 mg/ml,Weakly soluble
polyoxyethylene-(20)-sorbitane monostearate [Polysorbate 60],Effect of additive itself on water based product,[1]; [5],Not compatible with apple juice.
OC[C@H]1O[C@@H]2O[C@H]3[C@H](O)[C@@H](O)[C@@H](O[C@H]4[C@H](O)[C@@H](O)[C@@H](O[C@H]5[C@H](O)[C@@H](O)[C@@H](O[C@H]6[C@H](O)[C@@H](O)[C@@H](O[C@H]7[C@H](O)[C@@H](O)[C@@H](O[C@H]8[C@H](O)[C@@H](O)[C@@H](O[C@H]9[C@H](O)[C@@H](O)[C@@H](O[C@H]1[C@H](O)[C@H]2O)O[C@@H]9CO)O[C@@H]8CO)O[C@@H]7CO)O[C@@H]6CO)O[C@@H]5CO)O[C@@H]4CO)O[C@@H]3CO [gamma cyclodextrin],beneficial effects as formulation stabilizer for antimicrobial glycolipids,[2],less pronounced beneficial effects
